Laboratory results taken from US11814366B2, “Antiviral compounds and use thereof” (UNIVERSITA DEGLI STUDI DI SIENA, priority 2018, dated 2023).
Entries after “also recorded” stand apart in the source; their conditions may differ.

Experiments:
[1] = test system: HSV-2; assay: HSV-2 plaque reduction assay on Vero cells; format: cell-based, Herpes 2 virus (HSV-2)
[2] = test system: HCMV; assay: HCMV inhibition assay on HELF cells; format: cell-based, HCMV strain Towne; details: Human betaherpesvirus 5, HELF
Experimental: HELF cells were pre-plated in a 96-well plate. The following day concentrations of compounds ranging from 50 μM to 0.0001 μM in DMSO were mixed with HCMV (MOI 0.005 pfu/cell) and incubated for 1 hour at 37° C. The mixtures were subsequently added to the cells, which were then incubated at 37° C. for 3 h; monolayers were then washed and overlaid with 1.2% methylcellulose medium supplemented with 3% FCS and 1 mM sodium pyruvate. After five days incubation, cells were observed under an inverted Zeiss LSM510 fluorescence microscope (Zeiss, Oberkochen, Germany) and the EC50 were calculated by comparing GFP positive cells in treated and untreated wells. The effective concentration producing 50% reduction in plaque formation (EC50) was determined using Prism software. The selectivity index (SI) was calculated by dividing the CC50 by the EC50 value.

[3] = Cell viability (MTS) assay, Hep-2 cells; format: cell-based; details: human, conditions of the RSV assay
Experimental: (§1) Cell viability was measured using the MITS [3-(4,5-dimethylthiazol-2-yl)-5-(3 carboxy methoxy phenyl)-2-(4-sulfophenyl)-2H-tetrazolium] assay. Cell cultures were seeded in 96-well plates and were incubated with different concentrations of compounds of the invention in triplicate under the same experimental conditions described for the antiviral assays. Cell viability was determined using the CellTiter 96 Proliferation Assay Kit (Promega, Madison, WI, USA) according to the manufacturer's instructions. Absorbances were measured using a Microplate Reader (Model 680, BIORAD) at 490 nm. The effect on cell viability at different concentrations of the compound was expressed as a percentage, by comparing absorbances of treated cells with those of cells incubated with culture medium and equal volumes of vehicle. The 50% cytotoxic concentrations (CC50) and 95% confidence intervals (CIs) were determined using Prism software (Graph-Pad Software, San Diego, CA).

[4] = Cell viability (MTS) assay, HeLa cells; format: cell-based, human; details: human, HeLa cells; conditions of the HPV-16 assay
Experimental: as §1

[5] = test system: HeLa cells; assay: Cell viability (MTS) assay, HeLa cells; format: cell-based, human; details: conditions of the Ad5 assay
Experimental: as §1

[6] = Cell viability (MTS) assay, Huh-7 cells; format: cell-based; details: human, conditions of the DENV-2 assay (Table 6)
Experimental: as §1

[7] = test system: HSV-2; assay: Pretreatment assay, Vero cells treated before HSV-2; format: cell-based, Herpes 2 virus (HSV-2); details: Vero cells pretreated 2 h at 37° C., then HSV-2
Experimental: Vero Cells were pretreated for 2 h at 37° C. with increasing concentrations of compound 15b in DMSO the inocula were then removed cells washed and HSV-2 was added on cells for 2 h at 37° C. Subsequently the same protocol described above for the evaluation of HSV inhibition was followed.

[8] = test system: HSV-2; assay: Post treatment assay, HSV-2 infected Vero cells; format: cell-based, Herpes 2 virus (HSV-2); details: Human alphaherpesvirus 2, Vero, read-out: antiviral activity value when added post-infection
Experimental: Supernatants and cells were harvested and cell free virus infectivity titers were determined in duplicate by plaque assay in Vero cell monolayers. Percent inhibition was determined by comparing the titer measured in the presence of the compounds to that measured in untreated wells.

[9] = test system: HSV-2; assay: Binding of virus to cell (ELISA, immunofluorescence); format: cell-based, Herpes 2 virus (HSV-2); details: 10 μM, HSV-2, Vero cells
Experimental: Vero Cells were plated in 96 well plates. The following day 10 μM of compound 15b in DMSO and HSV-2 (MOI 10 pfu/cell) were incubated for 1 h at 37° C. and subsequently added on cells for 2 hours at 4° C. Cells were then fixed with 4% paraformaldehyde, air dried, and blocked with 5% bovine serum albumin (BSA) in phosphate-buffered saline (PBS)-Tween. Binding of virus to vero cells was detected using the polyclonal HSV-2 antibody (Dako, Denmark) (diluted 1:250) incubated for 1 h at room temperature, washed three times with PBS-Tween, and incubated for 1 h at 37° C. with anti-rabbit conjugated to horseradish peroxidase (1:500). At the end of incubation, plates were washed three times with PBS-Tween, ABTS[2,2-azinobis(3-ethyl benz thiazoline sulfonic acid)] (A1888 SIGMA ALDRICH) substrate was added for 30 minutes (Thermo Scientific, Rockford, IL), and the absorbance at 405 nm was read.
Vero cells were pre-plated on coverslips and the following day the binding or entry protocol described above was applied. […] Rhodamine conjugated anti-rabbit IgG (Santa Cruz) was then added on cells for 1 h at 37° C. following 3 washes coverslips were mounted on microscope glasses and observed with Zeiss LSM510 fluorescence microscope (Zeiss, Oberkochen, Germany) and images were acquired (FIG. 3A, 3B).

[10] = test system: HSV-2; assay: Entry of virus into cell (ELISA, immunofluorescence); format: cell-based, Herpes 2 virus (HSV-2); details: 10 μM, HSV-2, Vero cells
Experimental: Cells were plated in 96 well plates. The following day 10 μM of compound 15b in DMSO and HSV-2 (MOI 10 pfu/cell) were incubated for 1 h at 37° C. and subsequently added on cells for 1 hour at 4° C. Cells were then washed and shifted at 37° C. for 1 h and 30 minutes. Cells were then fixed with 4% paraformaldehyde, air dried and permeabilized with PBS-TRITON (0.5%) and then the same protocol described for binding was followed.
Vero cells were pre-plated on coverslips and the following day the binding or entry protocol described above was applied. Cells were then fixed with 4% paraformaldehyde, air dried and for entry protocol permeabilized with PBS-TRITON. Blocking was performed with PBS-BSA1% for 1 h at room temperature and subsequently HSV-2 polyclonal antibody (B011402-2 Dako) (1:250) was added on cells, after 1 hour at 37° C. the inoculum was removed and coverslips were washed with PBS-TWEEN for 3 times. Rhodamine conjugated anti-rabbit IgG (Santa Cruz) was then added on cells for 1 h at 37° C. following 3 washes coverslips were mounted on microscope glasses and observed with Zeiss LSM510 fluorescence microscope (Zeiss, Oberkochen, Germany) and images were acquired (FIG. 3A, 3B).

[11] = test system: HSV2; assay: Virucidal assay; format: cell-based, Herpes 2 virus (HSV-2); details: 10 μM, 2 h at 37° C., titrated at dilutions where compound no more active
Experimental: Approximately 10^5 PFU of HSV2 plus 10 μM of 15b in DMSO were added to MEM and mixed in a total volume of 100 μl. The virus-compound mixtures were incubated for 2 h at 37° C. then diluted serially to the non-inhibitory concentration of test compound; the residual viral infectivity was determined by viral plaque assay (FIG. 2).

**Q.** For `O=C1NC(=S)N(CCc2ccccc2)C(=O)/C1=C\c1ccc(-c2ccc(C(=O)O)c(O)c2)[nH]1` [Compound 15b, (Z)-4-(5-((4,6-dioxo-1-phenethyl-2-thioxotetrahydropyrimidin-5(2H)-ylidene)methyl)-1H-pyrrol-2-yl)-2-hydroxybenzoic Acid], which SI selectivity index ([1]; HSV-2, CC50 divided by EC50) is on record?
**A.** The SI selectivity index was over 3452.

**Q.** What about the EC90 ([1]; Human alphaherpesvirus 2, Vero, HSV-2 infected cells, 90% effective concentration) of the same molecule?
**A.** Its EC90 is 1190 nM.

**Q.** What about the EC50 ([1]; Human alphaherpesvirus 2, Vero, HSV-2 infected cells, compound mixed with virus 1 hour at 37° C.) of the same molecule?
**A.** The EC50 was 86.9 nM.

**Q.** And the EC50 [2]?
**A.** The EC50 was 118 nM.

**Q.** And the EC90 [2]?
**A.** The EC90 was 772 nM.

**Q.** What about the CC50 [3] of the same molecule?
**A.** The CC50 was 241000 nM.

**Q.** What about the CC50 [4] of the same molecule?
**A.** The CC50 was over 300000 nM.

**Q.** And the CC50 [5]?
**A.** The CC50 was over 300000 nM.

**Q.** And the CC50 [6]?
**A.** Its CC50 is 7900 nM.

**Q.** And the “antiviral activity in pre-treatment assay” value [7]?
**A.** The value was “inactive”.

**Q.** And the EC50 [8]?
**A.** Its EC50 is 775 nM.

**Q.** What about the “viral binding / percentage of bound virus” value [9] of the same molecule?
**A.** Its value is “not impairing viral binding; also recorded: the same”.

**Q.** What about the “percentage of internalized virus” value [10] of the same molecule?
**A.** The value was “decreased; also recorded: lower”.

**Q.** And the “residual viral infectivity after virucidal incubation” value [11]?
**A.** The value was “never regained”.
